{
  "source": "patent US7943607B2",
  "about": "“Heteroaryl benzamide derivatives for use as GLK activators in the treatment of diabetes” (AstraZeneca AB, priority 2005, dated 2011)",
  "key": {"Zucker obese fa/fa rats": {"test_system": "Zucker obese fa/fa rats", "assay": "Oral Glucose Tolerance Test (OGTT)", "assay_type": "in vivo, rat", "settings": "10 mg/kg; given orally 120 minutes before oral glucose 2 g/kg; Zucker obese fa/fa rats on high fat diet", "method": "Oral glucose tolerance tests were done on conscious Zucker obese fa/fa rats (age 12-13 weeks or older) fed a high fat diet (45% kcal fat) for at least two weeks prior to experimentation. The animals were fasted for 2 hours before use for experiments. A test compound or a vehicle was given orally 120 minutes before oral administration of a glucose solution at a dose of 2 g/kg body weight. Blood glucose levels were measured using a Accucheck glucometer from tail bled samples taken at different time points before and after administration of glucose (time course of […]). A time curve of the blood glucose levels was generated and the area-under-the-curve (AUC) for 120 minutes was calculated (the time of glucose administration being time zero). Percent reduction in glucose excursion was determined using the AUC in the vehicle-control group as zero percent reduction."}, "[1]": {"molecular_target": "T1, recombinant human pancreatic GLK (Homo sapiens, UniProt P35557)", "T1 sequence (P35557 1-465)": "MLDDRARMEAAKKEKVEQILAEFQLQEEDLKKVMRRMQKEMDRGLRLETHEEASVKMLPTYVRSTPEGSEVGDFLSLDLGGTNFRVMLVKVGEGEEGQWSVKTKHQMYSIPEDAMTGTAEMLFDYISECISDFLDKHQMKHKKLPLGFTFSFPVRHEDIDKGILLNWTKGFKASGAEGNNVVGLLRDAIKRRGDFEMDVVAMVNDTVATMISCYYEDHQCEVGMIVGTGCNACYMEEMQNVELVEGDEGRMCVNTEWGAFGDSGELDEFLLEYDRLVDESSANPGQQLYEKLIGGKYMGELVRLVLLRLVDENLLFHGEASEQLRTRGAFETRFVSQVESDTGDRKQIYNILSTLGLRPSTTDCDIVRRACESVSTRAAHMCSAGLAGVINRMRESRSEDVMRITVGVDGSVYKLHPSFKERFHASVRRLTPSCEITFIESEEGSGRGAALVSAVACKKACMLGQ", "assay": "biochemical"}},
  "data": [
    {"compound": "C[C@@H](CO)Oc1cc(Oc2cc3c(cc2F)S(=O)(=O)CCCO3)cc(C(=O)Nc2ccn(C)n2)c1", "note": "[Example 3, 3-[(7-Fluoro-5,5-dioxido-3,4-dihydro-2H-1,5-benzoxathiepin-8-yl)oxy]-5-[(1S)-2-hydroxy-1-methylethoxy]-N-(1-methyl-1H-pyrazol-3-yl)benzamide]", "values": [
      {"measurement": "OGTT activity (percent reduction in glucose excursion, AUC vs vehicle control)", "setting": "Zucker obese fa/fa rats", "value": 29, "unit": "%"},
      {"measurement": "EC50", "setting": "[1]", "value": 38, "unit": "nM"}
    ]}
  ]
}
